Measurements as given in the supplement of paper PMC10307832.

Assays:
Assay in all cases: relative viability (nuclei count vs DMSO), 5 days (fraction); higher = more cells survive
Vandetanib + Tozasertib = compound: COc1cc2/c(=N/c3ccc(Br)cc3F)nc[nH]c2cc1OCC1CCN(C)CC1 [Vandetanib] + Cc1cc(Nc2cc(N3CCN(C)CC3)nc(Sc3ccc(NC(=O)C4CC4)cc3)n2)n[nH]1 [Tozasertib] (partner 0.1 µM)
In short: (§1)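 Lung cancer cell lines in 1536-well plates got either a single drug or a fixed anchor-drug dose together with five library-drug doses (not always all listed) in √10 steps, by pin tool, on the day after seeding. Nuclei were counted after 5 days, and relative viability is the treated-to-vehicle ratio of nuclei counts. Values are medians of duplicate plates.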

NVP-TAE684 + Pictilisib = compound: COc1cc(N2CCC(N3CCN(C)CC3)CC2)ccc1Nc1ncc(Cl)c(Nc2ccccc2S(=O)(=O)C(C)C)n1 [NVP-TAE684] + CS(=O)(=O)N1CCN(Cc2cc3nc(-c4cccc5[nH]ncc45)nc(N4CCOCC4)c3s2)CC1 [Pictilisib] (partner 1 µM)
In short: as §1

CUDC-101 + Decitabine = compound: C#Cc1cccc(Nc2ncnc3cc(OC)c(OCCCCCCC(=O)NO)cc23)c1 [CUDC-101] + Nc1ncn([C@H]2C[C@H](O)[C@@H](CO)O2)c(=O)n1 [Decitabine] (partner 2 µM)
In short: as §1

CUDC-101 + Phenformin = compound: C#Cc1cccc(Nc2ncnc3cc(OC)c(OCCCCCCC(=O)NO)cc23)c1 [CUDC-101] + N=C(N)NC(=N)NCCc1ccccc1 [Phenformin] (partner 250 µM)
In short: as §1

In the case of HARA, the relative viability (Vandetanib + Tozasertib; first compound 0.02 µM) is reported as 0.111, the relative viability (Vandetanib + Tozasertib; first compound 0.06325 µM) is reported as 0.118 and the relative viability (Vandetanib + Tozasertib; first compound 0.2 µM) is reported as 0.0738. It also gave a relative viability (Vandetanib + Tozasertib; first compound 0.6325 µM) of 0.466, a relative viability (Vandetanib + Tozasertib; first compound 2 µM) of 0.0849 and a relative viability (NVP-TAE684 + Pictilisib; first compound 0.2 µM) of 0.459. For the same cell line, the relative viability (NVP-TAE684 + Pictilisib; first compound 0.6325 µM) was 0.238, the relative viability (NVP-TAE684 + Pictilisib; first compound 2 µM) was 0.275 and the relative viability (CUDC-101 + Decitabine; first compound 0.01 µM) was 0.446. The relative viability (CUDC-101 + Decitabine; first compound 0.03162 µM) was 0.515, the relative viability (CUDC-101 + Decitabine; first compound 0.3162 µM) was 0.464 and the relative viability (CUDC-101 + Decitabine; first compound 1 µM) was 0.254. The relative viability (CUDC-101 + Phenformin; first compound 0.01 µM) was 0.4, the relative viability (CUDC-101 + Phenformin; first compound 0.03162 µM) was 0.397 and the relative viability (CUDC-101 + Phenformin; first compound 0.1 µM) was 0.476. The relative viability (CUDC-101 + Phenformin; first compound 0.3162 µM) was 0.501 and the relative viability (CUDC-101 + Phenformin; first compound 1 µM) was 0.248.

Cell Line BEN has a relative viability (Vandetanib + Tozasertib; first compound 0.02 µM) of 0.582, a relative viability (Vandetanib + Tozasertib; first compound 0.06325 µM) of 0.464 and a relative viability (Vandetanib + Tozasertib; first compound 0.2 µM) of 0.521. The relative viability (Vandetanib + Tozasertib; first compound 0.6325 µM) was 0.462, the relative viability (Vandetanib + Tozasertib; first compound 2 µM) was 0.452 and the relative viability (NVP-TAE684 + Pictilisib; first compound 0.2 µM) was 0.467. The relative viability (NVP-TAE684 + Pictilisib; first compound 0.6325 µM) was 0.472, the relative viability (NVP-TAE684 + Pictilisib; first compound 2 µM) was 0.527 and the relative viability (CUDC-101 + Decitabine; first compound 0.01 µM) was 0.724. The relative viability (CUDC-101 + Decitabine; first compound 0.03162 µM) was 0.656, the relative viability (CUDC-101 + Decitabine; first compound 0.1 µM) was 0.709 and the relative viability (CUDC-101 + Decitabine; first compound 0.3162 µM) was 0.649. For the same cell line, the relative viability (CUDC-101 + Decitabine; first compound 1 µM) was 0.498, the relative viability (CUDC-101 + Phenformin; first compound 0.01 µM) was 0.29 and the relative viability (CUDC-101 + Phenformin; first compound 0.03162 µM) was 0.259. It also gave a relative viability (CUDC-101 + Phenformin; first compound 0.1 µM) of 0.239, a relative viability (CUDC-101 + Phenformin; first compound 0.3162 µM) of 0.256 and a relative viability (CUDC-101 + Phenformin; first compound 1 µM) of 0.209.

Work on LC-2-ad yielded a relative viability (Vandetanib + Tozasertib; first compound 0.02 µM) of 0.471, a relative viability (Vandetanib + Tozasertib; first compound 0.06325 µM) of 0.462 and a relative viability (Vandetanib + Tozasertib; first compound 0.2 µM) of 0.467. For the same cell line, the relative viability (Vandetanib + Tozasertib; first compound 0.6325 µM) was 0.45, the relative viability (Vandetanib + Tozasertib; first compound 2 µM) was 0.357 and the relative viability (NVP-TAE684 + Pictilisib; first compound 0.2 µM) was 0.333. For the same cell line, the relative viability (NVP-TAE684 + Pictilisib; first compound 0.6325 µM) was 0.578, the relative viability (NVP-TAE684 + Pictilisib; first compound 2 µM) was 0.344 and the relative viability (CUDC-101 + Decitabine; first compound 0.01 µM) was 0.872. It also gave a relative viability (CUDC-101 + Decitabine; first compound 0.03162 µM) of 0.774, a relative viability (CUDC-101 + Decitabine; first compound 0.1 µM) of 0.829 and a relative viability (CUDC-101 + Decitabine; first compound 0.3162 µM) of 0.717. It also gave a relative viability (CUDC-101 + Decitabine; first compound 1 µM) of 0.621, a relative viability (CUDC-101 + Phenformin; first compound 0.01 µM) of 0.65 and a relative viability (CUDC-101 + Phenformin; first compound 0.03162 µM) of 0.651. For the same cell line, the relative viability (CUDC-101 + Phenformin; first compound 0.1 µM) was 0.689, the relative viability (CUDC-101 + Phenformin; first compound 0.3162 µM) was 0.551 and the relative viability (CUDC-101 + Phenformin; first compound 1 µM) was 0.287.

In the case of NCI-H1299, the relative viability (NVP-TAE684 + Pictilisib; first compound 0.2 µM) is reported as 0.601, the relative viability (NVP-TAE684 + Pictilisib; first compound 0.6325 µM) is reported as 0.707 and the relative viability (NVP-TAE684 + Pictilisib; first compound 2 µM) is reported as 0.364.

In the case of NCI-H2009, the relative viability (Vandetanib + Tozasertib; first compound 0.02 µM) is reported as 0.733, the relative viability (Vandetanib + Tozasertib; first compound 0.06325 µM) is reported as 0.704 and the relative viability (Vandetanib + Tozasertib; first compound 0.2 µM) is reported as 0.419. The relative viability (Vandetanib + Tozasertib; first compound 0.6325 µM) was 0.735, the relative viability (Vandetanib + Tozasertib; first compound 2 µM) was 0.786 and the relative viability (NVP-TAE684 + Pictilisib; first compound 0.2 µM) was 0.949. For the same cell line, the relative viability (NVP-TAE684 + Pictilisib; first compound 0.6325 µM) was 0.68, the relative viability (NVP-TAE684 + Pictilisib; first compound 2 µM) was 0.514 and the relative viability (CUDC-101 + Decitabine; first compound 0.01 µM) was 0.416. For the same cell line, the relative viability (CUDC-101 + Decitabine; first compound 0.03162 µM) was 0.372, the relative viability (CUDC-101 + Decitabine; first compound 0.1 µM) was 0.415 and the relative viability (CUDC-101 + Decitabine; first compound 0.3162 µM) was 0.438. The relative viability (CUDC-101 + Decitabine; first compound 1 µM) was 0.351, the relative viability (CUDC-101 + Phenformin; first compound 0.01 µM) was 0.511 and the relative viability (CUDC-101 + Phenformin; first compound 0.03162 µM) was 0.496. For the same cell line, the relative viability (CUDC-101 + Phenformin; first compound 0.1 µM) was 0.534, the relative viability (CUDC-101 + Phenformin; first compound 0.3162 µM) was 0.499 and the relative viability (CUDC-101 + Phenformin; first compound 1 µM) was 0.404.

Cell Line NCI-H1395 has a relative viability (Vandetanib + Tozasertib; first compound 0.02 µM) of 0.752, a relative viability (Vandetanib + Tozasertib; first compound 0.06325 µM) of 0.753 and a relative viability (Vandetanib + Tozasertib; first compound 0.2 µM) of 0.845. The relative viability (Vandetanib + Tozasertib; first compound 0.6325 µM) was 0.837, the relative viability (Vandetanib + Tozasertib; first compound 2 µM) was 0.723 and the relative viability (NVP-TAE684 + Pictilisib; first compound 0.2 µM) was 0.659. It also gave a relative viability (NVP-TAE684 + Pictilisib; first compound 0.6325 µM) of 0.61, a relative viability (NVP-TAE684 + Pictilisib; first compound 2 µM) of 0.589 and a relative viability (CUDC-101 + Decitabine; first compound 0.01 µM) of 0.794. It also gave a relative viability (CUDC-101 + Decitabine; first compound 0.03162 µM) of 0.756, a relative viability (CUDC-101 + Decitabine; first compound 0.1 µM) of 0.773 and a relative viability (CUDC-101 + Decitabine; first compound 0.3162 µM) of 0.709. It also gave a relative viability (CUDC-101 + Decitabine; first compound 1 µM) of 0.66, a relative viability (CUDC-101 + Phenformin; first compound 0.01 µM) of 0.495 and a relative viability (CUDC-101 + Phenformin; first compound 0.03162 µM) of 0.435. It also gave a relative viability (CUDC-101 + Phenformin; first compound 0.1 µM) of 0.462, a relative viability (CUDC-101 + Phenformin; first compound 0.3162 µM) of 0.466 and a relative viability (CUDC-101 + Phenformin; first compound 1 µM) of 0.456.

NCI-H1650 gave a relative viability (Vandetanib + Tozasertib; first compound 0.02 µM) of 0.354, a relative viability (Vandetanib + Tozasertib; first compound 0.06325 µM) of 0.24 and a relative viability (Vandetanib + Tozasertib; first compound 0.2 µM) of 0.146. The relative viability (Vandetanib + Tozasertib; first compound 0.6325 µM) was 0.378, the relative viability (Vandetanib + Tozasertib; first compound 2 µM) was 0.374 and the relative viability (NVP-TAE684 + Pictilisib; first compound 0.2 µM) was 0.564. For the same cell line, the relative viability (NVP-TAE684 + Pictilisib; first compound 0.6325 µM) was 0.405, the relative viability (NVP-TAE684 + Pictilisib; first compound 2 µM) was 0.161 and the relative viability (CUDC-101 + Decitabine; first compound 0.01 µM) was 0.351. It also gave a relative viability (CUDC-101 + Decitabine; first compound 0.03162 µM) of 0.444, a relative viability (CUDC-101 + Decitabine; first compound 0.1 µM) of 0.469 and a relative viability (CUDC-101 + Decitabine; first compound 0.3162 µM) of 0.387. The relative viability (CUDC-101 + Decitabine; first compound 1 µM) was 0.302, the relative viability (CUDC-101 + Phenformin; first compound 0.01 µM) was 0.405 and the relative viability (CUDC-101 + Phenformin; first compound 0.03162 µM) was 0.313. For the same cell line, the relative viability (CUDC-101 + Phenformin; first compound 0.1 µM) was 0.36, the relative viability (CUDC-101 + Phenformin; first compound 0.3162 µM) was 0.452 and the relative viability (CUDC-101 + Phenformin; first compound 1 µM) was 0.188.

Work on NCI-H2085 yielded a relative viability (Vandetanib + Tozasertib; first compound 0.02 µM) of 0.793, a relative viability (Vandetanib + Tozasertib; first compound 0.06325 µM) of 0.755 and a relative viability (Vandetanib + Tozasertib; first compound 0.2 µM) of 0.472. The relative viability (Vandetanib + Tozasertib; first compound 0.6325 µM) was 0.774, the relative viability (Vandetanib + Tozasertib; first compound 2 µM) was 0.725 and the relative viability (NVP-TAE684 + Pictilisib; first compound 0.2 µM) was 0.445. It also gave a relative viability (NVP-TAE684 + Pictilisib; first compound 0.6325 µM) of 0.427, a relative viability (NVP-TAE684 + Pictilisib; first compound 2 µM) of 0.415 and a relative viability (CUDC-101 + Decitabine; first compound 0.01 µM) of 0.642. It also gave a relative viability (CUDC-101 + Decitabine; first compound 0.03162 µM) of 0.552, a relative viability (CUDC-101 + Decitabine; first compound 0.1 µM) of 0.634 and a relative viability (CUDC-101 + Decitabine; first compound 0.3162 µM) of 0.568. The relative viability (CUDC-101 + Decitabine; first compound 1 µM) was 0.551, the relative viability (CUDC-101 + Phenformin; first compound 0.01 µM) was 0.654 and the relative viability (CUDC-101 + Phenformin; first compound 0.03162 µM) was 0.679. For the same cell line, the relative viability (CUDC-101 + Phenformin; first compound 0.1 µM) was 0.763, the relative viability (CUDC-101 + Phenformin; first compound 0.3162 µM) was 0.724 and the relative viability (CUDC-101 + Phenformin; first compound 1 µM) was 0.593.
